This note sets out measurements from DBAASP.

Usually MIC stands for the smallest concentration in the dilution series that meets the test's criterion for growth inhibition. Lower therefore signals greater potency.

Holding throughout (assay): ≥ marks a high value that may be exact or a test limit, other limits are often not marked, values filed in µg/mL are converted to µM
The subject of assay [1] is Staphylococcus aureus.
In assay [2] the test system is Escherichia coli.
Assay [3] concerns Bacillus cereus.
Assay [4] concerns Escherichia coli DH5alpha.
Assay [5] relates to Bacillus subtilis.
The subject of assay [6] is Staphylococcus aureus ATCC 25923.
Assay [7] relates to Enterococcus faecalis ATCC 29212.
For assay [8], the system named is Salmonella enterica subsp. enterica serovar Typhimurium ATCC 14028.
Assay [9] has as its system Pseudomonas aeruginosa ATCC 27853.
For assay [10], the system named is Klebsiella pneumoniae ATCC 13883.
In assay [11] the test system is Pseudomonas aeruginosa KCTC 1637.
The test system of assay [12] is Bacillus subtilis KCTC 3068.
Assay [13] relates to Salmonella typhimurium KCTC 1926.
Assay [14] deals with Escherichia coli KCTC 1682.
Assay [15] has as its system Staphylococcus epidermidis KCTC 1917.
The test system of assay [16] is Staphylococcus aureus KCTC 1621.

≈ marks a conversion by molar mass, not a printed value.

In the case of `CC(C)C[C@H](NC(=O)[C@@H](N)Cc1ccccc1)C(=O)NCC(=O)NCC(=O)N[C@H](C(=O)N[C@@H](Cc1ccccc1)C(=O)N[C@@H](CCCCN)C(=O)N[C@@H](CCCCN)C(=O)N[C@@H](C)C(=O)N[C@@H](CO)C(=O)N[C@@H](CCCCN)C(=O)N[C@H](C(=O)N[C@@H](Cc1ccccc1)C(=O)NCC(=O)N[C@@H](C)C(=O)N[C@H](C(=O)N[C@@H](Cc1ccccc1)C(=O)NCC(=O)N[C@@H](CCCCN)C(=O)N[C@H](C(=O)O)C(C)C)C(C)C)C(C)C)C(C)C` [FLGGVFKKASKVFGAVFGKV], the MIC in [1] was > 123 µM; in assay [2], 15.3 µM (≈ 32 µg/mL); in [3], ≥ 61.3 µM.

Take `CC[C@H](C)[C@H](NC(=O)CN)C(=O)NCC(=O)N[C@@H](CCCCN)C(=O)N[C@@H](C)C(=O)N[C@@H](CC(C)C)C(=O)N[C@@H](CCCCN)C(=O)N[C@@H](CCCCN)C(=O)N[C@@H](C)C(=O)N[C@@H](CCCCN)C(=O)N[C@@H](CCCCN)C(=O)NCC(=O)N[C@H](C(=O)NCC(=O)N[C@@H](C)C(=O)N[C@H](C(=O)N[C@@H](CC(C)C)C(=O)N[C@@H](CCCCN)C(=O)N[C@H](C(=O)N[C@@H](CC(C)C)C(=O)N[C@H](C(=O)N[C@H](C(=O)NCC(=O)N[C@@H](CC(C)C)C(=O)O)[C@@H](C)O)[C@@H](C)O)C(C)C)C(C)C)[C@@H](C)CC` [GIGKALKKAKKGIGAVLKVLTTGL]: the MIC in assay [4] is 15 µM (≈ 35.5 µg/mL); in [5], 8 µM (≈ 18.9 µg/mL); in assay [6], 4 µM (≈ 9.46 µg/mL); in assay [7], 32 µM (≈ 75.7 µg/mL); in assay [8], 8 µM (≈ 18.9 µg/mL); in assay [9] it was 45 µM (≈ 106 µg/mL). The compound further yielded an MIC in assay [10] of 8 µM (≈ 18.9 µg/mL).

As to `CC[C@H](C)[C@H](N)C(=O)NCC(=O)N[C@@H](CCCCN)C(=O)N[C@@H](CCCCN)C(=O)N[C@@H](Cc1ccccc1)C(=O)N[C@@H](CCCCN)C(=O)N[C@@H](CCCN=C(N)N)C(=O)N[C@H](C(=O)N[C@H](C(=O)N[C@@H](CCCCN)C(=O)N[C@@H](CCCN=C(N)N)C(=O)N[C@H](C(=O)N[C@@H](CCCCN)C(=O)N[C@@H](CCCCN)C(=O)N[C@@H](Cc1ccccc1)C(=O)N[C@@H](CC(C)C)C(=O)N[C@@H](CCCN=C(N)N)C(=O)N[C@@H](CCCCN)C(=O)N[C@@H](CC(C)C)C(=O)O)[C@@H](C)CC)C(C)C)[C@@H](C)CC` [IGKKFKRIVKRIKKFLRKL], the MIC in assay [11] stood at 8 µM (≈ 19.2 µg/mL); in assay [12], 2 µM (≈ 4.8 µg/mL); in assay [13], 2 µM (≈ 4.8 µg/mL); in [14], 8 µM (≈ 19.2 µg/mL); in assay [15], 4 µM (≈ 9.6 µg/mL); in assay [16], 4 µM (≈ 9.6 µg/mL).

As to `CC[C@H](C)[C@H](N)C(=O)N[C@@H](CC(C)C)C(=O)N1CCC[C@H]1C(=O)N[C@@H](Cc1c[nH]c2ccccc12)C(=O)N[C@@H](CCCCN)C(=O)N[C@@H](Cc1c[nH]c2ccccc12)C(=O)N1CCC[C@H]1C(=O)N[C@@H](CCCCN)C(=O)N[C@@H](CCCCN)C(=O)N1CCC[C@H]1C(=O)N[C@@H](Cc1c[nH]c2ccccc12)C(=O)N[C@@H](CCCN=C(N)N)C(=O)N[C@@H](CCCN=C(N)N)C(N)=O` [ILPWKWPKKPWRR], the MIC in assay [11] was 22.3 µM (≈ 40 µg/mL); in [12], 5.58 µM (≈ 9.99 µg/mL); in assay [13], 2.79 µM (≈ 5 µg/mL); in [14], 2.79 µM (≈ 5 µg/mL); in [15], 2.79 µM (≈ 5 µg/mL); in [16], 2.79 µM (≈ 5 µg/mL).

In the case of `CC[C@H](C)[C@H](N)C(=O)N[C@@H](CC(C)C)C(=O)N1CCC[C@H]1C(=O)N[C@@H](Cc1c[nH]c2ccccc12)C(=O)N[C@@H](CCCCN)C(=O)N[C@@H](Cc1c[nH]c2ccccc12)C(=O)N1CCC[C@H]1C(=O)N[C@@H](Cc1c[nH]c2ccccc12)C(=O)N[C@@H](Cc1c[nH]c2ccccc12)C(=O)N[C@@H](CCCCN)C(=O)N[C@@H](Cc1c[nH]c2ccccc12)C(=O)N[C@@H](CCCN=C(N)N)C(=O)N[C@@H](CCCN=C(N)N)C(N)=O` [ILPWKWPWWKWRR], the MIC turned out to be 10.3 µM (≈ 20 µg/mL) in [11]; 5.16 µM (≈ 10 µg/mL) in assay [12]; 5.16 µM (≈ 10 µg/mL) in assay [13]; 10.3 µM (≈ 20 µg/mL) in assay [14]; 5.16 µM (≈ 10 µg/mL) in [15]; 2.58 µM (≈ 5 µg/mL) in assay [16].

For the compound `C[C@@H](O)[C@H](NC(=O)[C@H](CCCCN)NC(=O)[C@H](Cc1c[nH]c2ccccc12)NC(=O)[C@H](Cc1c[nH]c2ccccc12)NC(=O)[C@@H](NC(=O)[C@H](CCCCN)NC(=O)[C@@H](N)CCCCN)[C@@H](C)O)C(=O)N[C@@H](Cc1c[nH]c2ccccc12)C(=O)N[C@@H](Cc1c[nH]c2ccccc12)C(=O)N[C@H](C(=O)N[C@@H](CCCCN)C(=O)N[C@@H](Cc1c[nH]c2ccccc12)C(=O)N[C@@H](CO)C(=O)N[C@@H](CCC(N)=O)C(=O)N1CCC[C@H]1C(=O)N[C@@H](CCCCN)C(=O)N[C@@H](CCCCN)C(=O)O)[C@@H](C)O` [KKTWWKTWWTKWSQPKK], the MIC in [11] amounted to 4 µM (≈ 9.34 µg/mL); in assay [12], 2 µM (≈ 4.67 µg/mL); in [13], 2 µM (≈ 4.67 µg/mL); in assay [14], 2 µM (≈ 4.67 µg/mL); in assay [15] it was 2 µM (≈ 4.67 µg/mL); in assay [16] it was 2 µM (≈ 4.67 µg/mL).

Turning to `CC[C@H](C)[C@H](NC(=O)[C@@H](NC(=O)[C@H](CC(C)C)NC(=O)[C@H](C)NC(=O)[C@@H]1CCCN1C(=O)CNC(=O)[C@H](Cc1ccc(O)cc1)NC(=O)[C@@H](N)CCCCN)C(C)C)C(=O)N[C@@H](C)C(=O)N[C@H](C(=O)N[C@@H](CCCCN)C(=O)N[C@@H](CCCCN)C(=O)N[C@@H](CO)C(=O)N[C@@H](CS)C(=O)N[C@@H](CO)C(=O)N[C@@H](CC(C)C)C(=O)N[C@H](C(=O)N[C@@H](Cc1ccccc1)C(=O)N[C@@H](CCCN=C(N)N)C(=O)N[C@@H](C)C(=O)O)[C@@H](C)O)C(C)C` [KYGPALVIAVKKSCSLTFRA], the MIC in assay [2] is > 119 µM; in assay [3], ≥ 119 µM.

`CC[C@H](C)[C@H](NC(=O)[C@H](CCCN=C(N)N)NC(=O)[C@@H]1CCCN1C(=O)[C@H](CC(C)C)NC(=O)[C@@H](N)CCCN=C(N)N)C(=O)N[C@@H](Cc1c[nH]c2ccccc12)C(=O)N[C@@H](Cc1c[nH]c2ccccc12)C(=O)N[C@H](C(=O)N[C@@H](CCCN=C(N)N)C(=O)N[C@H](C(=O)N1CCC[C@H]1C(=O)N[C@@H](CCCN=C(N)N)C(N)=O)C(C)C)[C@@H](C)CC` [RLPRIWWIRVPR]: the MIC in assay [11] turned out to be 3.79 µM (≈ 6.25 µg/mL); in assay [12], 3.79 µM (≈ 6.25 µg/mL); in assay [13], 1.9 µM (≈ 3.13 µg/mL); in assay [14] it was 7.58 µM (≈ 12.5 µg/mL); in [15], 3.79 µM (≈ 6.25 µg/mL); in assay [16], 7.58 µM (≈ 12.5 µg/mL).

Turning to `CC[C@H](C)[C@H](NC(=O)[C@@H](NC(=O)[C@@H](NC(=O)[C@@H](NC(=O)[C@H](CCCN=C(N)N)NC(=O)[C@H](CCCCN)NC(=O)[C@@H](NC(=O)CNC(=O)[C@@H]1CCCN1C(=O)[C@@H](NC(=O)[C@H](CO)NC(=O)[C@H](Cc1ccccc1)NC(=O)[C@@H](NC(=O)CNC(=O)[C@H](C)NC(=O)[C@H](CC(C)C)NC(=O)[C@@H]1CCCN1C(=O)[C@H](Cc1ccccc1)NC(=O)[C@H](CCCCN)NC(=O)[C@@H](N)CO)[C@@H](C)CC)C(C)C)C(C)C)C(C)C)C(C)C)C(C)C)C(=O)O` [SKFPLAGIFSVPGVKRVVVI], the MIC in assay [2] is > 121 µM; in assay [3], ≥ 121 µM.

As to `CC[C@H](C)[C@H](NC(=O)[C@H](Cc1ccccc1)NC(=O)[C@H](CCCCN)NC(=O)[C@H](C)NC(=O)[C@H](CC(C)C)NC(=O)[C@H](CC(=O)O)NC(=O)[C@H](CCCCN)NC(=O)[C@@H](N)C(C)C)C(=O)N[C@@H](C)C(=O)N[C@@H](CCCCN)C(=O)N[C@H](C(=O)N[C@H](C(=O)N[C@@H](C)C(=O)N[C@@H](CCCCN)C(=O)N[C@@H](CCC(N)=O)C(=O)NCC(=O)NCC(=O)N[C@@H](CS)C(=O)N[C@@H](Cc1ccc(O)cc1)C(=O)N[C@@H](CC(C)C)C(=O)O)C(C)C)[C@@H](C)O` [VKDLAKFIAKTVAKQGGCYL], the MIC was > 59.4 µM in [2] and ≥ 59.4 µM in assay [3].
